In one series the target is T1, CYP82X2 (UniProt D5J9U8+I3PLR0).
T1 construct: the full-length coding regions of CYP82X1 and CYP82X2 were inserted into the NotI and SpeI restriction sites; FLAG; made in house; host or cells: Saccharomyces cerevisiae YPL 154C:Pep4, microsomal fraction
T1 sequence (D5J9U8+I3PLR0 with tags, fused parts or gaps): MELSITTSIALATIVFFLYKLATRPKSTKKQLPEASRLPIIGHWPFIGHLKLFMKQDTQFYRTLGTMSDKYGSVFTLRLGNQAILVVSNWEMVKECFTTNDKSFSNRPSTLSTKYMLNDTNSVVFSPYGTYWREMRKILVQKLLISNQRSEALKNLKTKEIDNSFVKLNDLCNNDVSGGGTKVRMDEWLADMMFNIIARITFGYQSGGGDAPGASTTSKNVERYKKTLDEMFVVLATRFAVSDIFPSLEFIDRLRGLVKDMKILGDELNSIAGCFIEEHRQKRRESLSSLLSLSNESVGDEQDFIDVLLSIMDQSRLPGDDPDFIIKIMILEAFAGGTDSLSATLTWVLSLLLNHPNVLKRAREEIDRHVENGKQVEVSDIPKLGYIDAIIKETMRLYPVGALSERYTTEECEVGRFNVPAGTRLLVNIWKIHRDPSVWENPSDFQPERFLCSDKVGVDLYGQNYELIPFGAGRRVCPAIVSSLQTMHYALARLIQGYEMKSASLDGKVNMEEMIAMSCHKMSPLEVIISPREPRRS
In words: In vitro enzyme assay with yeast microsomal fractions containing CYP82X2 (CPR/82X2). Format: biochemical, Papaver somniferum. Conditions: yeast microsomes (CPR/82X2), extracted ion chromatograms, FIG. 13. An excerpt:
(§1) The full-length coding region of CYP82X1 was amplified using cDNA derived from total stem RNA of the Bea's Choice chemotype using Takara Ex Taq DNA polymerase (Fisher Scientific, Ottawa, Canada), and using a primer 5′-[…]-3′ (SEQ ID NO: 607) and reverse primer 5′-[…]-3′ (SEQ ID NO: 608). Owing to problems with heterologous expression in yeast, CYP82X2 was synthesized with the first 60 N-terminal amino acids replaced with the first 43 N-terminal amino acids from the lettuce cytochrome P450 germacrene A oxidase Nguyen, D. T. et al. J. Biol. Chem. 285, 16588-16598 (2010). For heterologous expression of Flag-tagged CYPs in yeast (Saccharomyces cerevisiae), the full-length coding regions of CYP82X1 and CYP82X2 were inserted into the NotI and SpeI restriction sites of the dual plasmid pESC-leu2d::CPR Ro, D.-K., Ouellet, M., Paradise, E. M., Burd, H., Eng, D., Paddon, C. J., Newman, J. D., & Keesling, J. D. BMC Biotech. 8, 83 (2008) yielding pESC-Leu2d::CYP82X1/CPR and pESC-Leu2d::CYP82X2/CPR. The protease-deficient yeast strain YPL 154C:Pep4 was transformed with pESC-Leu2d::CYP82X1/CPR and pESC-Leu2d::CYP82X2/CPR. Yeast culture, microsome preparation, and immunoblot analysis were performed as described previously Dang, T.-T. T. & Facchini, P. J. J. Biol. Chem. 289, 2013-2026 (2014). For heterologous expression of CXE1, CXE2, and AT1, corresponding open reading frames were amplified using cDNA derived from total stem RNA of the Bea's Choice chemotype and cloned in-frame an N-terminal His-tag sequence in the Escherichia coli expression vector pRSETA (Invitrogen, Carlsbad, Calif.). CXE1 and CXE2 were individually inserted into the SacI and HindIII restriction sties, whereas AT1 was inserted into the KpnI and HindIII sites, of pRSETA using a primer 5′-[…]-3′ (SEQ ID NO: 609) and reverse primer 5′-[…]-3′ (SEQ ID NO: 610). […] Microsomal fractions containing recombinant CYP82X1 or CYP82X2 were detected using a-FLAG antibodies, whereas recombinant CPR was detected using α-c-Myc antibodies (FIG. 12 A). […]

Another series concerns the target T2, CYP82X1 (Papaver somniferum, UniProt I3V6B7).
T2 construct: The full-length coding region of CYP82X1 was amplified using cDNA derived from total stem RNA of the Bea's Choice chemotype; FLAG; made in house; host or cells: Saccharomyces cerevisiae YPL 154C:Pep4, microsomal fraction
T2 sequence (I3V6B7 1-540): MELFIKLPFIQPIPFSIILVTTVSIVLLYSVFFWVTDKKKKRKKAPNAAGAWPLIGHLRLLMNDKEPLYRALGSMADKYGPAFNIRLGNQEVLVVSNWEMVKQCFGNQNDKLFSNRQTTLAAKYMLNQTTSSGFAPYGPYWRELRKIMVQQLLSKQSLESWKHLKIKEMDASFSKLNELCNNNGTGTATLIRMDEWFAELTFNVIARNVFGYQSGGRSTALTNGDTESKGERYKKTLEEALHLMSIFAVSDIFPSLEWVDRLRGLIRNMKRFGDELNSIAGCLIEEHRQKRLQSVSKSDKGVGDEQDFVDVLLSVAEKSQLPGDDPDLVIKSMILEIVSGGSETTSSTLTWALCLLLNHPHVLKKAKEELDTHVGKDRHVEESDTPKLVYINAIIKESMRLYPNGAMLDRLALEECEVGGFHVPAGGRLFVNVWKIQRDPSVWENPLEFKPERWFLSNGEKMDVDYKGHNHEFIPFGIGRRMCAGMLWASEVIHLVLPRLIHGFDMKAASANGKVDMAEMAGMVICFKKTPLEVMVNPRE
In words: In vitro enzyme assay with yeast microsomal fractions containing CYP82X1 (CPR/82X1). In kind it is biochemical. Conditions: yeast microsomes (CPR/82X1), extracted ion chromatograms, FIG. 13.
Text: as §1

The target in another series is CYP82Y1 (Papaver somniferum, UniProt I3PLR1, R101S). Conditions: yeast microsomes, 500 μM NADPH, pH 7.5, 30° C.
CYP82Y1, sequence (I3PLR1 whole entry R101S): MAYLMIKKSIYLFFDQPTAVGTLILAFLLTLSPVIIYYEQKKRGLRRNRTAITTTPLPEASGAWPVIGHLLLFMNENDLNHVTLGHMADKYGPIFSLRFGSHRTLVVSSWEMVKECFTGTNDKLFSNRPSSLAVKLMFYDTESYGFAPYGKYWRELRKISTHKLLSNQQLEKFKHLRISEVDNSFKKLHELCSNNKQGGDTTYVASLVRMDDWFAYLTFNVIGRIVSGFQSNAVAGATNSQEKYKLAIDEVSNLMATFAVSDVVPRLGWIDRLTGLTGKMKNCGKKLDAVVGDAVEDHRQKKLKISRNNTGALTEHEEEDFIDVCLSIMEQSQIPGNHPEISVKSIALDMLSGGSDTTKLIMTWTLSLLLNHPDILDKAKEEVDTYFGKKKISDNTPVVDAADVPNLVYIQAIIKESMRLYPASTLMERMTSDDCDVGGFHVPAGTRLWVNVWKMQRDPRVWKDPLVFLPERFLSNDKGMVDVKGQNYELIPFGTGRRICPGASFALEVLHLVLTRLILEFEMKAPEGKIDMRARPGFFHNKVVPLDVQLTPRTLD
The target of another series is T3, NOS (Papaver somniferum, UniProt I3PLR3).
T3 construct: His-tag (pRSETA leader) (N); made in house; host or cells: Escherichia coli Rosetta (DE3) pLysS
T3 sequence (I3PLR3 1-348): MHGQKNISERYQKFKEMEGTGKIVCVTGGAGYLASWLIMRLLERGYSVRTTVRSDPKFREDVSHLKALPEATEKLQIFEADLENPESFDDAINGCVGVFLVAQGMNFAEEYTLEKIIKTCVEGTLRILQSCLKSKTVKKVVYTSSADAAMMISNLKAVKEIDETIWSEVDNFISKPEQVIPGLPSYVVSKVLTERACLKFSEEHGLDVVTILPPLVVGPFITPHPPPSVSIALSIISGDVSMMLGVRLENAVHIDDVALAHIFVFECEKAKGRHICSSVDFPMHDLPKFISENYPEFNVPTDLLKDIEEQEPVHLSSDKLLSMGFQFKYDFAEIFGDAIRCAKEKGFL
Format: biochemical, opium poppy (Papaver somniferum). Particulars: for Km: cofactor of NOS for the conversion of narcotine hemiacetal to noscapine; for acceptance as substrate / conversion by NOS: recombinant NOS, product detection by LC-MS/MS. An excerpt:
The full-length cDNA sequence of CL1327Contig1 (see: Example 2) was cloned into vector pRSETA in-frame with an N-terminal His-tag and expressed in E. coli as follows. The NOS coding region was amplified from opium poppy stem cDNA using the following primer set: 5′-[…]-3′ (SEQ ID NO: 601) and 5′-[…]-3′ (SEQ ID NO: 602). The NOS cDNA was cloned into the expression vector pRSETA (Invitrogen) at the SacI and KpnI restriction sites in frame with an N-terminal His-tag sequence. The expression construct was transformed into Escherichia coli strain Rosetta (DE3) pLysS (EMD Chemicals, Darmstadt, Germany). Expression of the recombinant gene was induced overnight with 1 mM isopropyl β-D-thiogalactoside (IPTG) at room temperature. Cells were harvested by centrifugation and sonicated in a buffer containing 50 mM sodium phosphate, pH 7.0, 300 mM NaCl, and 10 mM β-mercaptoethanol. After centrifugation at 20,000 g for 10 min, the supernatant was loaded onto Talon cobalt affinity resin (Clontech, Mountain View, Calif.). Purification was performed according to the manufacturer's instruction. The purified, recombinant protein was desalted using an Amicon centrifugal filter −30K (Millipore, Billerica, Mass.) and stored in a buffer containing 50 mM Tris-HCl, pH 8.0, 1 mM EDTA, 1 mM β-mercaptoethanol, and 10% (v/v) glycerol. Protein concentration was determined by the Bradford assay (Bio-Rad, Hercules, Calif.) using bovine serum albumin as the standard.
The purified recombinant NOS enzyme (see: Example 4) was assayed using either narcotine hemiacetal as the substrate (in the presence of either NAD^+ or NADP^+ as cofactor) for dehydrogenase activity, or with noscapine as the substrate (in the presence of NADH or NADPH as the cofactor) for reductase activity. LC-MS/MS was used to identify and quantify product formation (FIG. 7). […] LC-MS/MS and CID spec
In addition to narcotine hemiacetal and noscapine, NOS was also assayed with several other BIAs that could potentially serve as substrates for dehydrogenase/reductase reactions.

By Km is commonly meant the concentration of substrate that gives half-maximal velocity.

With `COc1ccc2c(c1OC)C[N+]1(C)CCc3cc4c(c(O)c3C1C2OC(C)=O)OCO4` [(S)-1-hydroxy-13-O-acetyl-N-methylcanadine], on CYP82X2, the “conversion as substrate by CYP82X2” value is given as “showed no activity”. Besides, on CYP82X1, the “conversion as substrate by CYP82X1” value is on record as “converting (S)-1-hydroxy-13-O-acetyl-N-methylcanadine (m/z 428) to (S)-1,8-dihydroxy-13-O-acetyl-N-methylcanadine”.
For `COc1ccc2c(c1OC)C[N+]1(C)CCc3cc4c(c(O)c3C1C2)OCO4` [(S)-1-hydroxy-N-methylcanadine], in that order: “yielding (S)-1,13-dihydroxy-N-methylcanadine” and 4-O-demethylmacrantaldehyde.
For `COc1ccc2c(c1OC)C[N+]1(C)CCc3cc4c(cc3C1C2)OCO4` [(S)—N-methylcanadine], on CYP82Y1, the “conversion as substrate by CYP82Y1” value is given as “yielding 1-hydroxy-N-methylcanadine”.
On the same count and under the same terms, the value for `C[N@@+]12CCc3cc4c(cc3[C@@H]1Cc1ccc3c(c1C2)OCO3)OCO4` [N-methylstylopine, reference compound] was “give rise to 1-hydroxy-N-methylstylopine”.
On to `NC(=O)c1ccc[n+]([C@@H]2O[C@H](COP(=O)([O-])OP(=O)(O)OC[C@H]3O[C@@H](n4cnc5c(N)ncnc54)[C@H](OP(=O)(O)O)[C@@H]3O)[C@@H](O)[C@H]2O)c1` [NADP^+], for which the Michaelis constant (Km) at NOS was found to be 1250 µM.
On the same count and under the same terms, the value for `NC(=O)c1ccc[n+]([C@@H]2O[C@H](COP(=O)([O-])OP(=O)(O)OC[C@H]3O[C@@H](n4cnc5c(N)ncnc54)[C@H](O)[C@@H]3O)[C@@H](O)[C@H]2O)c1` [NAD^+] was 33.1 µM.
On to `COc1ccc2c3c1O[C@H]1[C@@H](O)C=C[C@H]4[C@@H](C2)N(C)CC[C@@]341` [codeine], for which the “acceptance as substrate / conversion by NOS” value on NOS is recorded as “none were accepted by NOS”.
With `COc1ccc2c3c1O[C@H]1C(=O)C=C[C@H]4[C@@H](C2)N(C)CC[C@]314` [codeinone], the “acceptance as substrate / conversion by NOS” value at NOS is reported as “none were accepted by NOS”.
`COc1ccc2c(c1OC)C(O)OC2C1c2c(cc3c(c2OC)OCO3)CCN1C` (stereo not drawn) [narcotine hemiacetal]: the “affinity of NOS for the alkaloid substrate and corresponding catalytic efficiency” value at NOS (in the presence of NAD^+ compared with NADP^+ as the cofactor) was “significantly higher”. Also, the “acceptance as substrate / conversion by NOS” value on NOS is on record as “able to oxidize the hydroxyl group on the hemiacetal ring”.
For `COc1ccc2c(c1OC)C(O)O[C@@H]2[C@H]1c2c(cc3c(c2O)OCO3)CCN1C` (stereo partly drawn) [narcotoline hemiacetal], the “acceptance as substrate / conversion by NOS” value at NOS is “yielded a new compound consistent with narcotoline”.
On the same count and under the same terms, the value for `COC1=C[C@]23CCN(C)[C@H](Cc4ccc(OC)c(O)c42)C3=CC1=O` [salutaridine] was “none were accepted by NOS”; that for `c1cc2c(c3c1C[C@H]1c4cc5c(cc4CCN1C3)OCO5)OCO2` [stylopine] was “none were accepted by NOS”.
